For assay [1], the target named is GDP-bound HRAS wild-type protein (Homo sapiens, UniProt P01112). The assay can be described thus: Binding to HRAS by surface plasmon resonance (SPR), Single Cycle Kinetics. The conditions noted are these: SPR, GDP-bound HRAS wild-type protein vs GDP-bound KRAS wild-type protein.
For assay [2], the target named is GDP-bound NRAS wild-type protein (Homo sapiens, UniProt P01111). The assay can be described thus: Binding to NRAS by surface plasmon resonance (SPR), Single Cycle Kinetics. The conditions noted are these: SPR, GDP-bound NRAS wild-type protein vs GDP-bound KRAS wild-type protein.
Sequence of GDP-bound NRAS wild-type protein (P01111 whole entry): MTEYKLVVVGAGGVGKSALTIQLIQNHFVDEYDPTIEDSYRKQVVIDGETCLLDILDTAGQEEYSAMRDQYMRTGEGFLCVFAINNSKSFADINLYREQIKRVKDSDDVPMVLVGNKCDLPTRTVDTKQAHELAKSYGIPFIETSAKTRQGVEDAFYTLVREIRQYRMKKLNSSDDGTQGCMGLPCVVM
Assay [3] deals with GDP-bound KRAS wild-type protein (Homo sapiens, UniProt P01116). The assay can be described thus: Binding to KRAS by surface plasmon resonance (SPR), Single Cycle Kinetics. Conditions: GDP-bound KRAS wild-type protein, read-out: KRAS KD.
Sequence of GDP-bound KRAS wild-type protein (P01116 whole entry): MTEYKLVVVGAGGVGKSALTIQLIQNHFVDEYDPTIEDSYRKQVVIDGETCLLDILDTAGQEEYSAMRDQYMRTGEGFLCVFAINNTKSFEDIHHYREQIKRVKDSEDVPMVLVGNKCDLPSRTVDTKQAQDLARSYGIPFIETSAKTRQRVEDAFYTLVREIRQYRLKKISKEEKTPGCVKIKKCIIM
Setting [4] is: SPR Single Cycle Kinetics, 1:1 binding model.

Molecules are shown by their SMILES. Where two headings read alike, the source gives them in different places. Where a SMILES comes first, the peptide text is derived from it. Bridges are numbered along the chain shown (N, C = ends). [ ]: non-standard residue; d: D form. hPhe(3-Cl-4-CF3) = N[C@@H](CCc1ccc(C(F)(F)F)c(Cl)c1)C(=O)O; NPrPhe(4-CF3) = CCCN[C@@H](Cc1ccc(C(F)(F)F)cc1)C(=O)O; NMeGly(cPent) = CN[C@H](C(=O)O)C1CCCC1; Pro(4,4-F2) = O=C(O)[C@@H]1CC(F)(F)CN1; NMeL = CN[C@@H](CC(C)C)C(=O)O; NMeA = CN[C@@H](C)C(=O)O; Ac5c = NC1(C(=O)O)CCCC1; Aze = O=C(O)[C@@H]1CCN1; Ac4c = NC1(C(=O)O)CCC1; Sar = CNCC(=O)O

Sequence of GDP-bound HRAS wild-type protein (P01112 whole entry): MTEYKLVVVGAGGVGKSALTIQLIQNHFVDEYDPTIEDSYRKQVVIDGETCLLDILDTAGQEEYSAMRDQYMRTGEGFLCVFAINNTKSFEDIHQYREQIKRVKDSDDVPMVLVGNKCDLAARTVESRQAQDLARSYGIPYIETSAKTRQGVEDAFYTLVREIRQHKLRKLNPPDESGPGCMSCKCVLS

Turning to `CCO[C@@H]1C[C@H]2C(=O)NC3(CC(C)(C)C3)C(=O)N(C)[C@@H](C(CC)CC)C(=O)N(C)[C@H](C(=O)N(C)C)CC(=O)N(C)[C@@H](COC)C(=O)N[C@@H]([C@@H](C)CC)C(=O)N(C)CC(=O)N(C)[C@H]3C/C=C\CCN(C3=O)[C@@H](Cc3ccc(C(F)(F)F)cc3)C(=O)N(C)CC(=O)N[C@@H](CCc3cc(F)c(C(F)(F)F)c(F)c3)C(=O)N2C1` [PP2121], the “HRAS/KRAS (ratio of KD value for HRAS to KD value for KRAS)” value in assay [1] was “A (a compound having 10 or more and less than 20 is denoted as A)”. The “NRAS/KRAS (ratio of KD value for NRAS to KD value for KRAS)” value in assay [2] is listed as “AA (a compound having 20 or more is denoted as AA)”. Also, the Kd in assay [3] (SPR, Single Cycle Kinetics) came to 1.5 nM.

Turning to `CCCN1C(=O)[C@@H]2CCN2C(=O)[C@H](C)N(C)C(=O)[C@H]([C@@H](C)CC)NC(=O)[C@H](CC(C)C)N(C)C(=O)C[C@@H](C(=O)N(C)C)NC(=O)[C@H](C2CCCC2)N(C)C(=O)C2(CCC2)NC(=O)[C@@H]2CCCN2C(=O)[C@H](CCc2ccc(C(F)(F)F)c(Cl)c2)NC(=O)CN(C)C(=O)[C@@H]1Cc1ccc(C(F)(F)F)cc1` [PP0380] ([NMeL]I[NMeA][Aze][NPrPhe(4-CF3)][Sar][hPhe(3-Cl-4-CF3)]P[Ac4c][NMeGly(cPent)]D-NMe2; lactam N-11), the “HRAS/KRAS (ratio of KD value for HRAS to KD value for KRAS)” value in assay [1] is “B (a compound having 3 or more and less than 10 is denoted as B)”. Also, the “NRAS/KRAS (ratio of KD value for NRAS to KD value for KRAS)” value in assay [2] was “C (A compound having a KD ratio of 0.1 or more and less than 3 is denoted as C)”. Further, the Kd in assay [3] (setting [4]) came to 0.59 nM.

Consider `CCO[C@@H]1C[C@H]2C(=O)NC3(CCCC3)C(=O)N(C)[C@@H](C3CCCC3)C(=O)N(C)[C@H](C(=O)N3CCOCC3)CC(=O)N(C)[C@@H](CC)C(=O)N[C@@H]([C@@H](C)CC)C(=O)N(C)CC(=O)N(C)[C@H]3C[C@H](C)C(C)CN(C3=O)[C@@H](Cc3ccc(C(F)(F)F)cc3)C(=O)N(C)CC(=O)N[C@@H](CCc3cc(F)c(C(F)(F)F)c(F)c3)C(=O)N2C1` (stereo partly drawn) [PP1348], for which the “HRAS/KRAS (ratio of KD value for HRAS to KD value for KRAS)” value in assay [1] (KD ratio class) was “B (a compound having 3 or more and less than 10 is denoted as B)”. Besides, in assay [2] (KD ratio class), the “NRAS/KRAS (ratio of KD value for NRAS to KD value for KRAS)” value was “B (a compound having 3 or more and less than 10 is denoted as B)”. The Kd in assay [3] (SPR, Single Cycle Kinetics, 1:1 binding model) turned out to be 0.076 nM.

Take `CCCN1C(=O)CN(C)C(=O)CNC(=O)[C@H]([C@@H](C)CC)NC(=O)[C@H](CC(C)C)N(C)C(=O)C[C@@H](C(=O)N(C)C)NC(=O)[C@H](C2CCCC2)N(C)C(=O)C2(CCCC2)NC(=O)[C@@H]2CC(F)(F)CN2C(=O)[C@H](CCc2ccc(C(F)(F)F)c(Cl)c2)NC(=O)CN(C)C(=O)[C@@H]1Cc1ccc(C(F)(F)F)cc1` [PP0363] ([NMeL]IG[Sar][NPrPhe(4-CF3)][Sar][hPhe(3-Cl-4-CF3)][Pro(4,4-F2)][Ac5c][NMeGly(cPent)]D-NMe2; lactam N-11): the “HRAS/KRAS (ratio of KD value for HRAS to KD value for KRAS)” value in assay [1] is “C (A compound having a KD ratio of 0.1 or more and less than 3 is denoted as C)”. Besides, in assay [2], the “NRAS/KRAS (ratio of KD value for NRAS to KD value for KRAS)” value is “B (a compound having 3 or more and less than 10 is denoted as B)”. For the same compound, the Kd in assay [3] (setting [4]) was 1 nM.

For `CC[C@H](C)[C@@H]1NC(=O)[C@H](CC(C)C)N(C)C(=O)C[C@@H](C(=O)N2CCOCC2)N(C)C(=O)[C@H](C2CCCC2)N(C)C(=O)C2(CCC2)NC(=O)[C@@H]2CCCN2C(=O)[C@H](CCc2cc(F)c(C(F)(F)F)c(F)c2)NC(=O)CN(C)C(=O)[C@H](Cc2ccc(C(F)(F)F)cc2)N2CCCCC[C@@H](C2=O)N(C)C(=O)CN(C)C1=O` [PP0497], the “HRAS/KRAS (ratio of KD value with respect to HRAS to KD value with respect to KRAS)” value in assay [1] was “B (a compound having 3 or more and less than 10 is denoted as B)”. The “NRAS/KRAS (ratio of KD value with respect to NRAS to KD value with respect to KRAS)” value in assay [2] is “B (a compound having 3 or more and less than 10 is denoted as B)”. For the same compound, the dissociation constant Kd in assay [3] (setting [4]) was found to be 0.85 nM.

On to `CC[C@H](C)[C@@H]1NC(=O)[C@H](CC(C)C)N(C)C(=O)C[C@@H](C(=O)N2CCOCC2)N(C)C(=O)[C@H](CC(F)(F)F)N(C)C(=O)C2(CCCC2)NC(=O)[C@@H]2CCCN2C(=O)[C@H](CCc2cc(F)c(C(F)(F)F)c(F)c2)NC(=O)CN(C)C(=O)[C@H](Cc2ccc(C(F)(F)F)cc2)N2CCCCC[C@@H](C2=O)N(C)C(=O)CN(C)C1=O` [PP0506], for which, in assay [1], the “HRAS/KRAS (ratio of KD value with respect to HRAS to KD value with respect to KRAS)” value is “B (a compound having 3 or more and less than 10 is denoted as B)”. The “NRAS/KRAS (ratio of KD value with respect to NRAS to KD value with respect to KRAS)” value in assay [2] is “B (a compound having 3 or more and less than 10 is denoted as B)”. In addition, the Kd in assay [3] (setting [4]) was 25 nM.

The values are drawn from patent US20240158446A1, “CYCLIC COMPOUND HAVING SELECTIVE INHIBITORY ACTION ON KRAS OVER HRAS AND NRAS” (CHUGAI SEIYAKU KABUSHIKI KAISHA, priority 2021, published 2024).
